{"source": "patent US10919891B2", "about": "“Heterocyclic compound” (TAKEDA PHARMACEUTICAL COMPANY LIMITED, priority 2017, dated 2021)", "key": {"[1]": {"target": "T1, CYP3A4 (Homo sapiens, UniProt P08684)", "T1 construct": "Human liver microsomes purchased from XenoTech, LLC (Lenexa, Kans.) was used; tissue XenoTech, LLC; host or cells: human liver microsomes", "T1 sequence (P08684 whole entry)": "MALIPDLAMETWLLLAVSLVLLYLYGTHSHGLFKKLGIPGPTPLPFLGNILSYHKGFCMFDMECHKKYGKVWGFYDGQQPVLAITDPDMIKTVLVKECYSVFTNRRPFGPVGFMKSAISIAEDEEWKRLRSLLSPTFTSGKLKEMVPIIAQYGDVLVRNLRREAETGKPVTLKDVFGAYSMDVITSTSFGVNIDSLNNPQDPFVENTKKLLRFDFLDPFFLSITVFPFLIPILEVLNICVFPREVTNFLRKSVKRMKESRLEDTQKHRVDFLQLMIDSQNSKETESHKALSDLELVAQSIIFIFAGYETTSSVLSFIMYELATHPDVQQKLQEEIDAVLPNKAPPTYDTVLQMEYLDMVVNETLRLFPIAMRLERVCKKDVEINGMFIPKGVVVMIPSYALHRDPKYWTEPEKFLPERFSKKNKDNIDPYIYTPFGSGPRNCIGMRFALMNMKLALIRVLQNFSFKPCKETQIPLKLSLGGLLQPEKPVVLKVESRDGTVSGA", "assay": "CYP3A4 TDI (human liver microsomes, testosterone 6β-hydroxylation)", "assay_type": "in vitro ADME", "details": "test compound 30 μM, 60 min vs 0 min preincubation with NADPH, 37° C.", "description": "Human liver microsomes purchased from XenoTech, LLC (Lenexa, Kans.) was used. Test compounds were dissolved in acetonitrile, acetonitrile/methanol (1:1, v/v) or DMSO/acetonitrile (1:4, v/v). To a human liver microsomes solution adjusted with phosphate buffer (pH 7.4), the test compound solution was added to obtain a human liver microsomes reaction solution having the test compound concentration of 30 μM. To the human liver microsome reaction solution, NADPH production system was added, and the mixture was preincubated at 37° C. for 0 minutes or 60 minutes. After the preincubation, probe substrate testosterone was added, and testosterone metabolite 6β-hydroxytestosterone was analyzed by LC/MS/MS to evaluate CYP3A4 enzymatic activity.\nThe enzyme activity (% of control) at each preincubation point was calculated from the following equation: % of control=[(activity of test compound addition group)/(activity of test compound non-addition group)]×100.\nThe remaining activity (% remaining) after 60 minutes of preincubation was calculated from the following equation: Remaining activity (%)=[activity after 60 minutes (% of control60 min)]/[activity after 0 minutes (% of control0 min)]×100."}, "[2]": {"tested_on": "CSQ-Tg mice", "assay": "Effect on survival rate of heart failure animal model", "assay_type": "in vivo", "text": "In this Test Example, effect of the compound of Example 1 on survival rate was examined using heart failure animal models. The mice reported in Larry R. Jones et al., J. Clin. Invest. 101: 1385-1393, 1998 were obtained from the University of Pennsylvania and bred in-house, which were cardiac-specific transgenic mice of Calsequestrin (CSQ)(CSQ-Tg mice) as the heart failure animal models. In the study, female mice were used, and dosing was started from the age of 5 weeks. The animals were fed with chow (CE-2, CLEA Japan, Inc.) and tap water under the condition of room temperature of 20 to 26° C., humidity of 40 to 70%, and lighting time of 12 hours/day (7:00 to 19:00). As already reported, in the CSQ-Tg mice, Ca^2+ intracellular release was suppressed, myocardial contraction was reduced, cardiac output was decreased, and cardiac hypertrophy and heart failure were developed.\nTo 5-week old female CSQ-Tg mice, the compound of Example 1 was orally administered at a dose of 10 mg/kg bodyweight/day with a frequency of once daily (QD) for 47 days (n=24). While, to the control group, vehicle (0.5% methylcellulose aqueous solution) was administered (n=24).\nTo 5-week old female CSQ-Tg mice, the compound of Example 1 was orally administered at a dose of 10 mg/kg bodyweight/day in combination with candesartan cilexetil (1 mg/kg bodyweight/day) with a frequency of once daily (QD) for 68 days (n=18). […]"}}, "data": [{"compound": "CC1(C)C[C@H](c2ccccc2)Nc2c(C(=O)N3C[C@@H]4C[C@]4(c4ccc(Cl)c(Cl)c4)C3)cnn21", "note": "[Example 1, ((1S,5R)-1-(3,4-Dichlorophenyl)-3-azabicyclo[3.1.0]hex-3-yl)((5R)-7,7-dimethyl-5-phenyl-4,5,6,7-tetrahydropyrazolo[1,5-a]pyrimidin-3-yl)methanone]", "values": [{"measurement": "Remaining Activity (%)", "setting": "[1]", "result": 86.0, "unit": "%"}, {"measurement": "Survival rates, log-rank test p", "setting": "[2]; 10 mg/kg bodyweight/day co-administered with candesartan cilexetil (1 mg/kg bodyweight/day) QD 68 days vs candesartan cilexetil mono-administration (FIG. 2)", "result": "< 0.001"}, {"measurement": "Survival rates, log-rank test p", "setting": "[2]; 10 mg/kg bodyweight/day oral QD for 47 days vs vehicle administration group (FIG. 1)", "result": "< 0.025"}]}]}
